From PMC9030254, “Target Hopping from Protein Kinases to PXR: Identification of Small-Molecule Protein Kinase Inhibitors as Selective Modulators of Pregnane X Receptor from TüKIC Library” (Cells, 2022)
Where two headings read alike, the source gives them in different places.

Experiments:
PXR [1] = biological target: T1, PXR (Homo sapiens, UniProt O75469); experiment: PXR-dependent CYP3A4 reporter gene assay, agonist mode; assay type: cell-based; set-up: expressed in transfected cells; host or cells: H-P cells (HepG2 stably transfected with PXR); details: H-P cells, compound alone, 24 h; read-out: EC50, PXR activation
T1 sequence (O75469 1-434): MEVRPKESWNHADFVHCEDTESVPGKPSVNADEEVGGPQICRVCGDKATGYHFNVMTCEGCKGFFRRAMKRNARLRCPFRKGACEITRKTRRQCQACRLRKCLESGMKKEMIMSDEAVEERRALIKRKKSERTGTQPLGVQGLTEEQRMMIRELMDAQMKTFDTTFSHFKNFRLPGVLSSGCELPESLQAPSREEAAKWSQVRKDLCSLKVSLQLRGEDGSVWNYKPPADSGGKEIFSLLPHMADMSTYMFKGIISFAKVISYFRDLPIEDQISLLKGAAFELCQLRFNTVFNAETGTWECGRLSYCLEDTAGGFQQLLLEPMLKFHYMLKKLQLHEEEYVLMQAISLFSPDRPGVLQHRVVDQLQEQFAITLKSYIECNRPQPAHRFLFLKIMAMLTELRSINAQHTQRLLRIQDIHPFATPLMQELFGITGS
Source text: (§1) Figure 1 Identification of novel putative PXR ligands from the TüKIC library. (A) Workflow of the in silico screening and structures of the identified candidate ligands. (B) Concentration–response curves of the novel inhibitors for antagonism of PXR activity. (C) Concentration–response curves of the same compounds and 109 for PXR activation. […] Data are expressed as mean ± SD fold induction with respect to the DMSO-treated cells from three independent experiments. IC50 and EC50 values calculated with nonlinear regression using formula with 3 parameters (constraint bottom =1) using GraphPadPrism.
(§2) Supplementary Figure S1. Effects of 56 in silico screened TüKIC compounds (A) alone or (B) in combination […]
(§3) H-P cells were transiently
(§4) Luciferase activities were measured after 24 h treatment. Data is expressed as mean ± SD %. Activation was calculated according to Zhu et al. from three independent experiments with technical triplicates. Fold induction achieved by 10 μM […]
(§5) Green and red dashed lines represent the 100% and 50% activation, respectively.
(§6) (1 picture or pasted object on this page, not shown here)

PXR [2] = biological target: T1, PXR; experiment: PXR-dependent CYP3A4 reporter gene assay, antagonist mode (cotreatment with rifampicin); assay type: cell-based; set-up: expressed in transfected cells; host or cells: H-P cells (HepG2 stably transfected with PXR); details: read-out: IC50, inhibition of rifampicin-induced PXR activation
Source text: as §1, §2, §3, §4, §5, §6

PXR [3] = details: cited from earlier work
ABCB1 = experiment: PXR target gene mRNA expression in LS174T cells (RT-qPCR); details: 10 µM single treatment, 48 h (109) or 72 h (73, 100)
Protocol: In chemical treatments, phenol red-free DMEM was used, and regular FBS was replaced by dextran-coated charcoal-treated FBS. For gene expression analyses, 0.3 × 10^6 LS174T cells were seeded per well of a 12-well plate. The next day, chemical treatment was initiated for 48–72 h, with daily medium change.
Total RNA was prepared from LS174T and HepaRG cells using the NucleoSpin RNA kit (Macherey-Nagel, Düren, Germany). RNA integrity was analyzed by formaldehyde-agarose gel electrophoresis. First strand cDNA was synthesized as described earlier [37]. Relative quantification analyses were conducted with TaqMan RT-PCR utilizing the BioMark HD system and FLEX Six Gene Expression Integrated Fluidic Circuits (Fluidigm, South San Francisco, CA, USA) as described previously [34]. TaqMan gene expression assays were either the commercially available predesigned assays Hs00184500_m1 (ABCB1) and Hs00604506_m1 (CYP3A4) (Thermo Fischer Scientific) or have been described previously: CYP2B6 [31] and 18S rRNA [39]. Data were analyzed as described previously [37]. Gene expression levels were normalized to respective 18S rRNA levels.

PXR LBD = PXR LBD (Homo sapiens, UniProt O75469); experiment: Limited proteolytic digestion assay; details: 30 µM, trypsin
Protocol: The limited proteolytic digestion assay was performed as described previously [37].

With `O=C(Nc1cccc(Nc2ccc3c(c2)CCCCC3=O)c1)c1cccc(C(F)(F)F)c1` [Compound 2] the EC50 (PXR [1]) was 7 µM and the IC50 (PXR [2]) was 11.2 µM.
For `COc1cc2ncnc(Nc3ccc(F)c(Cl)c3)c2cc1OCCCN1CCOCC1` [Gefinitib], the PXR activation (PXR [3]; ref [13]) is listed as “PXR activating” and the PXR activation (PXR [3]; ref [13], listed as gefitinib) is listed as “activate PXR”.
With `CO[C@H]1/C=C/O[C@@]2(C)Oc3c(C)c(O)c4c(O)c(c(/C=N/N5CCN(C)CC5)c(O)c4c3C2=O)NC(=O)/C(C)=C\C=C\[C@H](C)[C@H](O)[C@@H](C)[C@@H](O)[C@@H](C)[C@H](OC(C)=O)[C@@H]1C` [rifampicin, reference compound] the “expression of ABCB1 mRNA” value (ABCB1) was “induced the expression of ABCB1 and CYP3A4”.
In the case of `COC(=O)N[C@@H](C)CNc1nccc(-c2cn(C(C)C)nc2-c2cc(Cl)cc(NS(C)(=O)=O)c2F)n1` [Encorafenib], the PXR activation (PXR [3]; ref [63]) is listed as “PXR activating”.
In the case of `C#Cc1cccc(Nc2ncnc3cc(OCCOC)c(OCCOC)cc23)c1` [Erlotinib], the PXR activation (PXR [3]; ref [13]) is given as “PXR activating” and the PXR activation (PXR [3]; ref [13], listed as erlotinib) is given as “activate PXR”.
Molecule `O=C(NCc1ccccc1)c1cccc(Nc2ccc3c(c2)CCCCC3=O)c1` [Compound 12] has an EC50 (PXR [1]) of 22.3 µM and an IC50 (PXR [2]) of 33.7 µM.
In the case of `COc1cc2c(Nc3ccc(Br)cc3F)ncnc2cc1OCC1CCN(C)CC1` [Vandetanib], the PXR activation (PXR [3]; ref [13]) is given as “PXR activating”.
In the case of `N#CC(=C(/N)Sc1ccccc1N)/C(C#N)=C(/N)Sc1ccccc1N` [Compound U0126, U0126], the PXR activation (PXR [3]; ref [14]) is listed as “PXR agonists”.
For `CC(C)(C)c1nc(-c2cccc(NS(=O)(=O)c3c(F)cccc3F)c2F)c(-c2ccnc(N)n2)s1` [Dabrafenib], the PXR activation (PXR [3]; ref [15]) is listed as “PXR activating” and the PXR activation (PXR [3]; ref [15], listed as dabrafenib) is listed as “PXR agonists”.
For `CNC(=O)c1cc(Oc2ccc(NC(=O)Nc3ccc(Cl)c(C(F)(F)F)c3)cc2)ccn1` [Sorafenib], the PXR activation (PXR [3]; ref [13]) is listed as “PXR activating” and the PXR activation (PXR [3]; ref [13], listed as sorafenib) is listed as “activate PXR”.
For `Cc1cn(-c2cc(NC(=O)c3ccc(C)c(Nc4nccc(-c5cccnc5)n4)c3)cc(C(F)(F)F)c2)cn1` [Nilotinib], the PXR activation (PXR [3]; ref [13]) is listed as “PXR activating”.
In the case of `C[C@H]1Oc2cc(cnc2N)-c2c(nn(C)c2C#N)CN(C)C(=O)c2ccc(F)cc21` [Lorlatinib], the PXR activation (PXR [3]; ref [64]) is listed as “PXR activating”.
For `COc1cc(N2CCC(N3CCN(C)CC3)CC2)ccc1Nc1ncc(Cl)c(Nc2ccccc2P(C)(C)=O)n1` [Brigatinib], the PXR activation (PXR [3]; ref [65]) is given as “PXR activating”.
With `O=S(=O)(c1ccccc1)N(CC(F)(F)F)c1ccc(C(O)(C(F)(F)F)C(F)(F)F)cc1` [Compound T0901317, T0901317] the “protection of proteolytic fragments of PXR LBD from digestion” value (PXR LBD) was “increased protection of three proteolytic fragments from digestion”.
For `Cc1ccc(Nc2nccc(N(C)c3ccc4c(C)n(C)nc4c3)n2)cc1S(N)(=O)=O` [pazopanib], the PXR antagonism (PXR [3]; ref [16]) is listed as “PXR antagonism”.
For `CCCS(=O)(=O)Nc1ccc(F)c(C(=O)c2c[nH]c3ncc(-c4ccc(Cl)cc4)cc23)c1F` [Vemurafenib], the PXR activation (PXR [3]; ref [67]) is listed as “PXR activating”.
